In assay [1] the target is Dual specificity mitogen-activated protein kinase kinase 1 (Homo sapiens, UniProt Q02750). Nature of the assay: Navigating the Kinome. Panel member name: MAP2K1. Type of assay: functional.
For assay [2], the target named is Vascular endothelial growth factor receptor 1 (Homo sapiens, UniProt P17948). Type of assay: functional.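 Further: measured within a kinome-wide profiling panel, FLT1 as the panel member.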
Assay [3] deals with Serine/threonine-protein kinase Nek2 (Homo sapiens, UniProt P51955). It counts as functional.
Sequence of Serine/threonine-protein kinase Nek2 (P51955 whole entry): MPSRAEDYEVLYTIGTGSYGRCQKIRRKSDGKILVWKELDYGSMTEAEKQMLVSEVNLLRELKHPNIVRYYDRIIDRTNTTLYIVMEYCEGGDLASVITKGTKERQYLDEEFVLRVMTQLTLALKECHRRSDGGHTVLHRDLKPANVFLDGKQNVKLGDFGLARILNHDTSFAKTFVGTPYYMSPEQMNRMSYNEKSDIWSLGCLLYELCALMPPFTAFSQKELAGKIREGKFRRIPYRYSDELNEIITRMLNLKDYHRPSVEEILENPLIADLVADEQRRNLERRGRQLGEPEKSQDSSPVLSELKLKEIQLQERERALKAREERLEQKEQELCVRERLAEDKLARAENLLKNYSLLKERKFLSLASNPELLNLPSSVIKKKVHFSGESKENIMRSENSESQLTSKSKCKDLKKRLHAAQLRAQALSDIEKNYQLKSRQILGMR
The target of assay [4] is Casein kinase II subunit alpha (Homo sapiens, UniProt P68400). Type of assay: functional.
Assay [5] concerns the target Glycogen synthase kinase-3 alpha (Homo sapiens, UniProt P49840). Type of assay: functional.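 Further: GSK3A result taken from a broad kinome-wide kinase panel.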
Assay [6] addresses Dual specificity mitogen-activated protein kinase kinase 2 (Homo sapiens, UniProt P36507). The assay is described as follows: Navigating the Kinome. Panel member name: MAP2K2. Type of assay: functional.
For assay [7], the target named is Platelet-derived growth factor receptor alpha (Homo sapiens, UniProt P16234). The assay is described as follows: Navigating the Kinome. Panel member name: PDGFRA. It counts as functional.
Sequence of Platelet-derived growth factor receptor alpha (P16234 whole entry): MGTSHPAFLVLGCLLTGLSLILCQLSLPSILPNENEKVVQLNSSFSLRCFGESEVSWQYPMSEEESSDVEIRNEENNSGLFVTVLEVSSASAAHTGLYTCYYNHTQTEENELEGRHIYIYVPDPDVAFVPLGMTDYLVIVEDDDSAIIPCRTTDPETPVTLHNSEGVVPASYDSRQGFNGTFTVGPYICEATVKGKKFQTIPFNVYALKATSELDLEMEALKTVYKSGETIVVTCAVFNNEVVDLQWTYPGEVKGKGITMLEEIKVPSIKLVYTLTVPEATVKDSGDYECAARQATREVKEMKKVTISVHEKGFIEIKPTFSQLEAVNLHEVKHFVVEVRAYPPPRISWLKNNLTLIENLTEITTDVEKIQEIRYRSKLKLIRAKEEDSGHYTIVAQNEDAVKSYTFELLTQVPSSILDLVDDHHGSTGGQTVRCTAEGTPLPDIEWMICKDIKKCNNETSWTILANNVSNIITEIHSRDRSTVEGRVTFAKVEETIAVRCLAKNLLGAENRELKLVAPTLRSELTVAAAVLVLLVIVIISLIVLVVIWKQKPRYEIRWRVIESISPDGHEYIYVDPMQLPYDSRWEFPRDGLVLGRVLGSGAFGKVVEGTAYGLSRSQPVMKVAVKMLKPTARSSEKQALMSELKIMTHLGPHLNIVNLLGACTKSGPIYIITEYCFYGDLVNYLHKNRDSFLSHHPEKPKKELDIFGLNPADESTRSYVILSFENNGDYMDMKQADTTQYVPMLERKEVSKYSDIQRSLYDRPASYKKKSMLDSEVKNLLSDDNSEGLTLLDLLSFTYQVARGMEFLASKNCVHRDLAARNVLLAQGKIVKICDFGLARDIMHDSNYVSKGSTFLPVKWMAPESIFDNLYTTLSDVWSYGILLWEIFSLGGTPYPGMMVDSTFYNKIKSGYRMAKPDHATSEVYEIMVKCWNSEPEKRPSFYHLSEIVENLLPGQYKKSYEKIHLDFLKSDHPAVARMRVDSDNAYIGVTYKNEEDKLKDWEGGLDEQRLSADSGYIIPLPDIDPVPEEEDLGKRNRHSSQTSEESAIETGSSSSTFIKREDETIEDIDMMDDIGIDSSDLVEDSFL
Assay [8] deals with Tyrosine-protein kinase BTK (Homo sapiens, UniProt Q06187). It counts as functional.
Sequence of Tyrosine-protein kinase BTK (Q06187 whole entry): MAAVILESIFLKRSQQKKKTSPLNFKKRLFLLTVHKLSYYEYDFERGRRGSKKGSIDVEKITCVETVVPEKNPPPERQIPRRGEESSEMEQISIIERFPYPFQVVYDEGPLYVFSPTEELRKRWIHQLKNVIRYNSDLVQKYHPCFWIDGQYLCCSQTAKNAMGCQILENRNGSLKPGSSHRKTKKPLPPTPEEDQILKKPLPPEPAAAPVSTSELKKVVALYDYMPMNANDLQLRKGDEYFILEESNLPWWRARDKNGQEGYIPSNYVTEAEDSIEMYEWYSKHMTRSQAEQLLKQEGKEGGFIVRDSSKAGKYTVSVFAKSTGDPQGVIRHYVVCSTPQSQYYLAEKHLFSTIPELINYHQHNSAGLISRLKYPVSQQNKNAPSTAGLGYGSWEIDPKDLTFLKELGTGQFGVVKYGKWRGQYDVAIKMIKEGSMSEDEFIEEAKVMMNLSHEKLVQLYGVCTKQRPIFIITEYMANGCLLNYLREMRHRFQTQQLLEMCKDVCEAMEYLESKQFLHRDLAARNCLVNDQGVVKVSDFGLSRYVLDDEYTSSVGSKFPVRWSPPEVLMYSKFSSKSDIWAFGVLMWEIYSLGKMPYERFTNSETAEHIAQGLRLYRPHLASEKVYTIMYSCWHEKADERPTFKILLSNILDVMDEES
For assay [9], the target named is Vascular endothelial growth factor receptor 3 (Homo sapiens, UniProt P35916). Type of assay: functional.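 Further: value from a kinome-wide profiling panel, with FLT4 as the panel member.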
Assay [10] deals with Cyclin-dependent kinase 7 (Homo sapiens, UniProt P50613). It counts as functional.
For assay [11], the target named is Cell division cycle 7-related protein kinase (Homo sapiens, UniProt O00311). Type of assay: functional.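 Further: value obtained from a kinome-wide kinase panel.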
For assay [12], the target named is Mitogen-activated protein kinase 9 (Homo sapiens, UniProt P45984). It counts as functional.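 Further: value from a kinome panel profiling assay, MAPK9 panel entry.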
Another assay has as its target T1, Aurora kinase A (Homo sapiens, UniProt O14965).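 Further: value from the Navigating the Kinome kinase panel profiling, panel entry STK6.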
T1 sequence (O14965 whole entry): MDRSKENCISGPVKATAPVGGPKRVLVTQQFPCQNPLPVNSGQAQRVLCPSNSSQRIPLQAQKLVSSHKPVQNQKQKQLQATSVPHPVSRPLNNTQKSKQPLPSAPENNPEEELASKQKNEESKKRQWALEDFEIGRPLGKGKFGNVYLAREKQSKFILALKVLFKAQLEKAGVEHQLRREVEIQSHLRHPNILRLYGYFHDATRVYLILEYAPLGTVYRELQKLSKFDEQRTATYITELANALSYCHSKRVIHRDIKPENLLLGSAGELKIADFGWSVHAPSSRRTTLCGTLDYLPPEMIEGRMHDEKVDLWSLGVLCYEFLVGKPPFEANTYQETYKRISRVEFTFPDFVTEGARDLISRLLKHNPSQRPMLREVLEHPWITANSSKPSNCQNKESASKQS
Type of assay: functional.

A further assay has as its target LIM domain kinase 1 (Homo sapiens, UniProt P53667). Nature of the assay: Navigating the Kinome. Panel member name: LIMK1. Type of assay: functional.
For assay [13], the target named is Serine/threonine-protein kinase PAK 4 (Homo sapiens, UniProt O96013). Type of assay: functional.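 Further: value obtained within a kinome profiling panel in which PAK4 was one of the panel members.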
Assay [14] addresses Glycogen synthase kinase-3 beta (Homo sapiens, UniProt P49841). It counts as functional.
The target in a further assay is Aurora kinase B (Homo sapiens, UniProt Q96GD4). Type of assay: functional.
The test system of the next assay is Jurkat. The assay is described as follows: blockers of NF-kB activation in T cells – Jurkat, luciferase reporter, luminescence, B- and T-cell, dose response (AID 489004).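 Further: NF-kB luciferase reporter Jurkat cells stimulated with PMA plus ionomycin.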 Type of assay: functional, cell-based. The settings on record: Homo sapiens.
The target of another assay is T2, Caspase-3 (Homo sapiens, UniProt P42574).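 Further: Dose-response selectivity test against caspase-3 for candidate inhibitors of sentrin-specific proteases (SENPs).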
T2 sequence (P42574 whole entry): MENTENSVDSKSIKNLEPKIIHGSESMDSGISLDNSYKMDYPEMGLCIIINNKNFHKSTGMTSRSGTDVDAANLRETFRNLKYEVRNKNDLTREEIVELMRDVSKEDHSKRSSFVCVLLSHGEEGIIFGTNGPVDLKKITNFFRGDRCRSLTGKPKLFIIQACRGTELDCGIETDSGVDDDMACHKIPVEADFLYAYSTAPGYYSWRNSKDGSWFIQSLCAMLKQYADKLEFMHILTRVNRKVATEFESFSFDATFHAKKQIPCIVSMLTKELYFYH
It counts as functional.

The target in assay [15] is Histone-lysine N-methyltransferase NSD2 (Homo sapiens, UniProt O96028). Type of assay: biochemical.
A short description of assay [16]: CMV-driven luciferase expression suppression in HEK293 – cell-based, luminescence, dry powder, counter-screen for Pax8 inhibitor project, dose response (AID 743020). Type of assay: functional. (In general: Counterscreens check selectivity or assay interference.)
A short description of assay [17]: NIH3T3 cell viability loss – ATP luminescence, mouse fibroblasts, counter-screen, dose response (AID 2010).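 Further: cells exposed to compound for about 90 hours before reading.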 It counts as functional, cell-based.
The target in assay [18] is Ras and Rab interactor 1/Tyrosine-protein kinase ABL1 (Homo sapiens, UniProt P00519+Q13671). It counts as functional.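 Further: biochemical TR-FRET dose-response test measuring inhibition of binding between Rin1 and Abl proteins.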
Assay [19] addresses Tyrosine-protein phosphatase non-receptor type 22 (Homo sapiens, UniProt Q9Y2R2). It counts as functional.
Another assay has as its target T3, Protein RecA (Mycobacterium tuberculosis, UniProt P9WHJ3).
T3 sequence (P9WHJ3 whole entry): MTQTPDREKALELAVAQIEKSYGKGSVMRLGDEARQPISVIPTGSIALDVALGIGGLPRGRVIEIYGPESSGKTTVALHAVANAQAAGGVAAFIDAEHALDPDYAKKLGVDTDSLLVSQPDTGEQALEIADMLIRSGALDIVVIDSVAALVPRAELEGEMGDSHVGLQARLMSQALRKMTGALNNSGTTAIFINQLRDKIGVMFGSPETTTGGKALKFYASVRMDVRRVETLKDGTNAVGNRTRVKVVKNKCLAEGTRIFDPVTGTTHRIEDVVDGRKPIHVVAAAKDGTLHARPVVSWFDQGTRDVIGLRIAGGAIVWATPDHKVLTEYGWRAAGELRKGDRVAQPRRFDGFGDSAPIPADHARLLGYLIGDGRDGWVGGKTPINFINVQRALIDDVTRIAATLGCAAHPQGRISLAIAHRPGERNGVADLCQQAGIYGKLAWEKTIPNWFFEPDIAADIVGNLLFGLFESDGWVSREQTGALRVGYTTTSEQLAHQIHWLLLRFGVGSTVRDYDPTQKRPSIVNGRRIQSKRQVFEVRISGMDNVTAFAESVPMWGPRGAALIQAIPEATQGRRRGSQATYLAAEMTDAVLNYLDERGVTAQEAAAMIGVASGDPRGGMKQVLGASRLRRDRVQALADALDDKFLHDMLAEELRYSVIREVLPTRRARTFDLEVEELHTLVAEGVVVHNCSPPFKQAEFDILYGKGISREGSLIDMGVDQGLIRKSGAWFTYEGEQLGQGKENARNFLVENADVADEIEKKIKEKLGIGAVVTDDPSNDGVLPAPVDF
Nature of the assay: RecA Intein Measured in Biochemical System Using Plate Reader - 2047-02_Inhibitor_Dose_DryPowder_Activity. [Related pubchem assays (depositor defined):AID2223]. Also noted: species or system Mycobacterium tuberculosis H37Rv.

Activity calls are given as the source filed them.

One may read the Ki as a measure of affinity in units of concentration, obtained from inhibition or displacement. One may read the IC50 as the concentration that inhibits the measured activity by half. Usually AC50 stands for the midpoint of the concentration-response curve, whichever way the signal moves. One may read the EC50 as the midpoint of the concentration-response curve.

Sequence of Vascular endothelial growth factor receptor 1 (P17948 whole entry): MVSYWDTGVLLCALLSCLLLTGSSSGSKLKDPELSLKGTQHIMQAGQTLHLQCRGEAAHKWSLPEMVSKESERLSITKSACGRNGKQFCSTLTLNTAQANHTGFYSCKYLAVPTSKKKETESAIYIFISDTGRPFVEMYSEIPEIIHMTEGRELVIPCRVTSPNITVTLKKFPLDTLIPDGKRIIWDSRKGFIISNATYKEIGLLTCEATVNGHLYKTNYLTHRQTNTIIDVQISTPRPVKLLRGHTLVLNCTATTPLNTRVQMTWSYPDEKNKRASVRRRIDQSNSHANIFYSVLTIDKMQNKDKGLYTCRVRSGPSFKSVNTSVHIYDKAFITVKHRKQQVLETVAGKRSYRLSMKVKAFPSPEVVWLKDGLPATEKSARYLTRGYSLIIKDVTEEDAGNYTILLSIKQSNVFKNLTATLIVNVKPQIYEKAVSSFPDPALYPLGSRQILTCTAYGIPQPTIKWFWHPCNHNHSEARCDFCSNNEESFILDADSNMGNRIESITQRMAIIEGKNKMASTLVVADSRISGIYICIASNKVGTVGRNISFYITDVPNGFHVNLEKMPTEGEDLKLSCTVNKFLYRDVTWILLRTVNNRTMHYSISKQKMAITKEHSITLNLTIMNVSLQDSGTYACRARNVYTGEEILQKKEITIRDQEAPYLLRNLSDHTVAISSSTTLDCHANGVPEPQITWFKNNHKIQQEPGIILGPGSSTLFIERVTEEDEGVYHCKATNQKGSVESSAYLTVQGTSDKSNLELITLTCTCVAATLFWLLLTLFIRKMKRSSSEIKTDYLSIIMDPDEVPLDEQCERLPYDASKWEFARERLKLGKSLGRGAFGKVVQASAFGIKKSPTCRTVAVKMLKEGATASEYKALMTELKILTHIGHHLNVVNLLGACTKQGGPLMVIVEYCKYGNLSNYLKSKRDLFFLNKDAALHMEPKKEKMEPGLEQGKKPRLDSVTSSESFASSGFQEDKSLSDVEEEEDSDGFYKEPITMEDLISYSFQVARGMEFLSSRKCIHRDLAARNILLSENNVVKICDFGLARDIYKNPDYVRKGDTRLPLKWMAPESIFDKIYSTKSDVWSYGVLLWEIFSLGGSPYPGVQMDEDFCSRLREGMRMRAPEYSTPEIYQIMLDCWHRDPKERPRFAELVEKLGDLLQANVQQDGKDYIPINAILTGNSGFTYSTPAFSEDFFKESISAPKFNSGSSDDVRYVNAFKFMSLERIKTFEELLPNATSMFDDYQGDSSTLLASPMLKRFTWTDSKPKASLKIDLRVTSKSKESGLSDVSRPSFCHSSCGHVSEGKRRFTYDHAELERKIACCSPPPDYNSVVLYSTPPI
Sequence of Dual specificity mitogen-activated protein kinase kinase 1 (Q02750 whole entry): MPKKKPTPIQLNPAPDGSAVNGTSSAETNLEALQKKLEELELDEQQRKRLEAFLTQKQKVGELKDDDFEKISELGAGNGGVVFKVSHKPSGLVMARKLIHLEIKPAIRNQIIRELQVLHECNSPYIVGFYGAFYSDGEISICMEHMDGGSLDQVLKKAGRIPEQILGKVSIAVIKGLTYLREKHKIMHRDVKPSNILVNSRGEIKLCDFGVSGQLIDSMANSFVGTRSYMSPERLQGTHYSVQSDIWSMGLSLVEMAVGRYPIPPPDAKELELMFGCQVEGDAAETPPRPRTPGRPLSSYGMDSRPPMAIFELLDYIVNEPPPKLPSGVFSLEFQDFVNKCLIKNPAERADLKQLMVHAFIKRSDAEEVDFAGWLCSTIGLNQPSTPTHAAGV
Sequence of LIM domain kinase 1 (P53667 whole entry, the tested form may be a part): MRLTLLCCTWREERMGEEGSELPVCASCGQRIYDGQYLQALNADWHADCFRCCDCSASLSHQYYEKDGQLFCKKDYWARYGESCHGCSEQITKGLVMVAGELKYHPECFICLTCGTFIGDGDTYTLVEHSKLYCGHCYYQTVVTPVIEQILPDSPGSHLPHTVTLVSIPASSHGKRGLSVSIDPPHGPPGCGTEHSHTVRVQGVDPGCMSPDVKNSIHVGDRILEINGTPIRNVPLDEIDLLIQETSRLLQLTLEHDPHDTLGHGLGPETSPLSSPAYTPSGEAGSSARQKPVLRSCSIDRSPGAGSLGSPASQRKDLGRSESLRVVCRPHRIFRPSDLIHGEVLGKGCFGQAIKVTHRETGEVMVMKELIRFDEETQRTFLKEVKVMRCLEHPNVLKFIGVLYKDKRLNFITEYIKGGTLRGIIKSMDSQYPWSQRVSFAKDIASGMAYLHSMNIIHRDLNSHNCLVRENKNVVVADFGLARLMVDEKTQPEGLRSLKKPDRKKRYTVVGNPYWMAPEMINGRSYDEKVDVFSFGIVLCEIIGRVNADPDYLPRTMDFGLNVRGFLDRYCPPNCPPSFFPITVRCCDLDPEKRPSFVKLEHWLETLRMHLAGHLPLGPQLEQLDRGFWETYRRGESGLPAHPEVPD
Sequence of Glycogen synthase kinase-3 alpha (P49840 whole entry): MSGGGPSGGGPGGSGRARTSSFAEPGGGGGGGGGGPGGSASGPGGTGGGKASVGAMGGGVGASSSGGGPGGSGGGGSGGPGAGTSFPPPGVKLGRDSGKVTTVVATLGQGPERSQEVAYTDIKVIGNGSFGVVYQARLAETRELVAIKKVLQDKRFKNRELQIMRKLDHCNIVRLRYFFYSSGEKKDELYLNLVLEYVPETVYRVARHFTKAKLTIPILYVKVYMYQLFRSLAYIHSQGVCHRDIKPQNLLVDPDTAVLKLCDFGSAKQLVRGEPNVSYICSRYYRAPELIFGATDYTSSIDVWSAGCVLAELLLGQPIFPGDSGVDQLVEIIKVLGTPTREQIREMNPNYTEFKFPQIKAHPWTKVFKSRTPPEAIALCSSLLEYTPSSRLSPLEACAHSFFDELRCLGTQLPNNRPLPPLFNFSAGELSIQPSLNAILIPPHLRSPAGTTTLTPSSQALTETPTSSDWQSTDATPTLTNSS

`COc1cc2c(cc1Nc1nc(Nc3cccc(F)c3C(N)=O)c3cc[nH]c3n1)N(C(=O)CN(C)C)CC2`: the Ki is > 3.16 µM (inactive) in [1]; > 3.98 µM (inactive) in assay [2]; > 3.16 µM (inactive) in assay [3]; 0.631 µM (active) in assay [4]; > 3.98 µM (inactive) in assay [5]; > 3.98 µM (inactive) in assay [6]. Also, the Ki was > 2.51 µM (inactive) in assay [7]; > 6.31 µM (inactive) in [8]; > 6.31 µM (inactive) in assay [9]; 2.51 µM (active) in assay [10]; 0.631 µM (active) in assay [11]; 0.631 µM (active) in [12]. In addition, the Ki is > 1.58 µM (inactive) at Aurora kinase A; > 3.16 µM (inactive) on LIM domain kinase 1; > 5.01 µM (inactive) in assay [13]; > 3.98 µM (inactive) in [14]; > 3.98 µM (inactive) at Aurora kinase B.

`CC(C)c1ccc(-c2nnn(CCC(=O)O)n2)cc1`: the results for the IC50 in the assay with Jurkat and on Caspase-3 were < 0.16 µM (active) and 48.6 µM (active), respectively.

On to `O=c1[nH][nH]c2ccc(Br)cc12`, for which the Ki was 25.1 µM (active) in [1]; 7.94 µM (active) in assay [2]; 6.31 µM (active) in assay [3]; 39.8 µM (active) in assay [5]; 15.8 µM (active) in assay [7]; 31.6 µM (active) in assay [8]. In addition, the Ki on Aurora kinase A was 7.94 µM (active); at LIM domain kinase 1, 3.16 µM (active); in [13], 50.1 µM (active).

With `CCn1nc(/C=C/c2ccccc2)nc2c(=O)n(C)c(=O)nc1-2`, the half-maximal activity concentration (AC50) in assay [15] is 0.0879 µM (active); in assay [16], < 0.704 µM (active); on Protein RecA, 0.06 µM (active). Besides, the EC50 in [17] was 1.02 µM (active). Besides, the IC50 in assay [18] was > 73.5 µM (inactive); in [19], 13 µM (active).

Source of the values: ChEMBL document CHEMBL1201862, “PubChem BioAssay data set” (2004).
